{"source": "patent US20100216751A1", "about": "(priority 2007, published 2010)", "assay": "Pharmacokinetic evaluation of liquid bevirimat dosage forms, oral gavage, male Cynomolgus monkeys", "description": "Six male Cynomolgus monkeys having an initial body weight of about 3.5 to about 4.5 kg are allowed 7 days to acclimate to their individual housing units. Monkeys are supplied with water and a commercial diet ad libitum prior to the study initiation. Food is withheld from the monkeys for a minimum of twelve hours before the study and during the study until four hours postdose when food is returned. Water is supplied ad libitum.\nTest formulations are administered to the monkeys at time 0 on appropriate days. Test formulations will be dosed orally via oral gavage or intravenously.\nSamples are drawn at the frequencies indicated below. Each blood sample (0.5 mL) is collected from the monkey's saphenous vein via a butterfly catheter and placed into a chilled polypropylene tube containing sodium heparin as the anticoagulant. Blood samples are centrifuged at a temperature of 4° C. at a speed of 3,000 rpm for 15 minutes. All samples are maintained chilled throughout processing. Plasma is collected after centrifugation, pipetted into a 2-mL polypropylene microtube, and frozen on dry-ice pending analytical evaluation.", "key": {"[1]": {"details": "12.5 mg FAE/mL in 10% HPβCD, 50 mg FAE/monkey oral gavage, monkeys 186,116,120,AVG"}, "[2]": {"details": "12.5 mg FAE/mL in 15% EtOH:0.5% TPGS:15% PG:5% Glycerin, 0.2% Povidone K90, 50 mg FAE/monkey oral gavage, monkeys 117,118,119,AVG"}, "[3]": {"details": "12.5 mg FAE/mL in 15% Ethanol, 30% PG, 10% Glycerin, 50 mg FAE oral gavage, monkeys 117,118,119,AVG"}, "[4]": {"details": "12.5 mg FAE/mL in 40% PG, 20% Glycerin, 0.25% Tween80, 0.2% Povidone K15, 50 mg FAE oral gavage, monkeys 186,116,120,AVG"}, "[5]": {"details": "12.5 mg FAE/mL in 40% PG, 20% Glycerin, 1% TPGS, 0.25% Tween80, 0.2% Povidone K15, 50 mg FAE/monkey oral gavage, monkeys 117,118,119,AVG"}, "[6]": {"details": "12.5 mg FAE/mL in 40% PG, 20% glycerin, 5% Vitamin E TPGS, 0.25% Tween80, 0.20% Plasdone C15, 10 mM sodium phosphate pH 8.0, 200 mg/monkey (50.0 mg/kg) oral gavage, monkeys 181,182,AVG"}, "[7]": {"details": "50 mg FAE/mL in 40% EtOH:40% PG:20% Glycerol, 50 mg FAE/monkey oral gavage, monkeys 117,118,119,AVG"}, "[8]": {"details": "male, cynomolgus monkey, in vivo, 50 mg/kg, pH 8"}, "[9]": {"details": "male, cynomolgus monkey, in vivo, po, 50 mg FAE/monkey"}}, "note": "Where “and” joins values, the source holds several entries; their conditions need not be identical. Equal entries are not always repeated.", "data": [{"smiles": "C=C(C)[C@@H]1CC[C@]2(C(=O)O)CC[C@]3(C)[C@H](CC[C@@H]4[C@@]5(C)CC[C@H](OC(=O)CC(C)(C)C(=O)O)C(C)(C)[C@@H]5CC[C@]43C)[C@@H]12", "note": "[Bevirimat, 3-O-(3′,3′-dimethylsuccinyl)betulinic acid]", "values": [{"measurement": "AUCall", "setting": "[1]", "value": 392.275, "unit": "µg·h/mL"}, {"measurement": "Cmax", "setting": "[1]", "value": 56.4, "unit": "µg/mL"}, {"measurement": "Dnzed AUCall", "setting": "[1]", "value": 38150, "unit": "ng·h/mL/mg/kg"}, {"measurement": "t1/2", "setting": "[1]", "value": "7.0 h and 11.4 h and 9.4 h"}, {"measurement": "t1/2", "setting": "12.5 mg FAE/mL in 15% EtOH:0.5% TPGS:15% PG:5% Glycerin, 50 mg FAE/monkey oral gavage, monkeys 117,118,119,AVG", "value": "11.3 h and 11.5 h and 11.6 h"}, {"measurement": "AUCall", "setting": "[2]", "value": "270.194 µg·h/mL and 344.629 µg·h/mL and 367.461 µg·h/mL"}, {"measurement": "Cmax", "setting": "[2]", "value": "65.6 µg/mL and 52.8 µg/mL and 56.567 µg/mL"}, {"measurement": "t1/2", "setting": "[2]", "value": "14.5 h and 8.7 h and 11.8 h"}, {"measurement": "Cmax", "setting": "[3]", "value": "57.2 µg/mL and 97.4 µg/mL and 72.9 µg/mL"}, {"measurement": "t1/2", "setting": "[3]", "value": "10.4 h and 9.0 h and 9.4 h"}, {"measurement": "Dnzed AUCall", "setting": "[4]", "value": "17281 ng·h/mL/mg/kg and 15596 ng·h/mL/mg/kg"}, {"measurement": "t1/2", "setting": "[4]", "value": "8.1 h and 10.2 h and 8.7 h"}, {"measurement": "t1/2", "setting": "12.5 mg FAE/mL in 40% PG, 20% Glycerin, 1% TPGS, 0.25% Tween80, 50 mg FAE/monkey oral gavage, monkeys 186,116,120,AVG", "value": "9.9 h and 11.1 h and 10.3 h"}, {"measurement": "Cmax", "setting": "[5]", "value": "84.8 µg/mL and 77.2 µg/mL and 85.1 µg/mL"}, {"measurement": "t1/2", "setting": "[5]", "value": "7.9 h and 6.4 h and 8.2 h"}, {"measurement": "AUCall", "setting": "[6]", "value": 1681.058, "unit": "µg·h/mL"}, {"measurement": "Cmax", "setting": "[6]", "value": "174 µg/mL and 199.5 µg/mL"}, {"measurement": "Dnzed AUCall", "setting": "[6]", "value": 33621, "unit": "ng·h/mL/mg/kg"}, {"measurement": "t1/2", "setting": "[6]", "value": "10.2 h and 9.2 h"}, {"measurement": "t1/2", "setting": "25 mg/mL in 30% EtOH:1% TPGS:30% PG:10% Glycerin, 50 mg FAE/monkey oral gavage, monkeys 117,118,119,AVG", "value": "17.8 h and 9.0 h and 12.5 h"}, {"measurement": "Cmax", "setting": "[7]", "value": "24.9 µg/mL and 33.1 µg/mL and 27.933 µg/mL"}, {"measurement": "t1/2", "setting": "[7]", "value": "7.8 h and 8.5 h"}, {"measurement": "t1/2", "setting": "50 mg FAE/mL in 40% PG:20% Glycerin:1% TPGS:5% Tween 80 in SWFI, 50 mg FAE/monkey oral gavage, monkeys 117,118,119,AVG", "value": "11.8 h and 14.6 h and 12.8 h"}, {"measurement": "t1/2", "setting": "10% HPβCD, 50 mg FAE/monkey oral gavage, monkeys 117,118,119,AVG", "value": "10.2 h and 11.0 h and 10.4 h"}, {"measurement": "bioavailability", "setting": "male, cynomolgus monkey, in vivo", "value": "~55", "unit": "%"}, {"measurement": "concentration at 1 hr", "setting": "[8]", "value": 108, "unit": "µg/mL"}, {"measurement": "concentration at 2 hr", "setting": "[8]", "value": 225, "unit": "µg/mL"}, {"measurement": "concentration at 4 hr", "setting": "[8]", "value": 163, "unit": "µg/mL"}, {"measurement": "concentration at 6 hr", "setting": "[8]", "value": 107, "unit": "µg/mL"}, {"measurement": "concentration at 8 hr", "setting": "[8]", "value": 70.3, "unit": "µg/mL"}, {"measurement": "concentration at 12 hr", "setting": "[8]", "value": 47.5, "unit": "µg/mL"}, {"measurement": "concentration at 0.25 hr", "setting": "male, cynomolgus monkey, in vivo, po, 50 mg FAE", "value": 3.06, "unit": "µg/mL"}, {"measurement": "concentration at 0.25 hr", "setting": "male, cynomolgus monkey, in vivo, po, 50 mg FAE, Plasma concentration, 0.25 hr, 12.5 mg FAE/mL in 15% Ethanol, 30% PG, 10% Glycerin, 50 mg FAE oral gavage, monkeys 117,118,119,AVG, BLOQ=below 50 ng/mL", "value": 0.066, "unit": "µg/mL"}, {"measurement": "concentration at 4 hr", "setting": "male, cynomolgus monkey, in vivo, po, 50 mg FAE, Plasma concentration, 4.0 hr, 12.5 mg FAE/mL in 15% Ethanol, 30% PG, 10% Glycerin, 50 mg FAE oral gavage, monkeys 117,118,119,AVG", "value": 46, "unit": "µg/mL"}, {"measurement": "concentration at 6 hr", "setting": "male, cynomolgus monkey, in vivo, po, 50 mg FAE, Plasma concentration, 6.0 hr, 12.5 mg FAE/mL in 15% Ethanol, 30% PG, 10% Glycerin, 50 mg FAE oral gavage, monkeys 117,118,119,AVG", "value": 44.7, "unit": "µg/mL"}, {"measurement": "concentration at 24 hr", "setting": "male, cynomolgus monkey, in vivo, po, 50 mg FAE, Plasma concentration, 24 hr, 12.5 mg FAE/mL in 40% PG, 20% Glycerin, 0.25% Tween80, 0.2% Povidone K15, 50 mg FAE oral gavage, monkeys 186,116,120,AVG", "value": 0.434, "unit": "µg/mL"}, {"measurement": "concentration at 48 hr", "setting": "male, cynomolgus monkey, in vivo, po, 50 mg FAE, Plasma concentration, 48 hr, 12.5 mg FAE/mL in 40% PG, 20% Glycerin, 0.25% Tween80, 0.2% Povidone K15, 50 mg FAE oral gavage, monkeys 186,116,120,AVG", "value": 0.0603, "unit": "µg/mL"}, {"measurement": "concentration at 72 hr", "setting": "male, cynomolgus monkey, in vivo, po, 50 mg FAE, Plasma concentration, 72 hr, 12.5 mg FAE/mL in 15% Ethanol, 30% PG, 10% Glycerin, 50 mg FAE oral gavage, monkeys 117,118,119,AVG, BLOQ=below 50 ng/mL", "value": 0.179, "unit": "µg/mL"}, {"measurement": "concentration at 1 hr", "setting": "[9]", "value": 85.2, "unit": "µg/mL"}, {"measurement": "concentration at 2 hr", "setting": "[9]", "value": 93.3, "unit": "µg/mL"}, {"measurement": "concentration at 4 hr", "setting": "[9]", "value": 62.7, "unit": "µg/mL"}, {"measurement": "concentration at 0.25 hr", "setting": "male, cynomolgus monkey, in vivo, po, 50 mg FAE/monkey, Plasma concentration, 0.25 hr, 25 mg/mL in 30% EtOH:1% TPGS:30% PG:10% Glycerin, 50 mg FAE/monkey oral gavage, monkeys 117,118,119,AVG, BLOQ=below 50 ng/mL", "value": 0.147, "unit": "µg/mL"}, {"measurement": "concentration at 0.25 hr", "setting": "male, cynomolgus monkey, in vivo, po, 50 mg FAE/monkey, Plasma concentration, 0.25 hr, 50 mg FAE/mL in 40% EtOH:40% PG:20% Glycerol, 50 mg FAE/monkey oral gavage, monkeys 117,118,119,AVG, BLOQ=below 50 ng/mL", "value": 0.0755, "unit": "µg/mL"}, {"measurement": "concentration at 0.5 hr", "setting": "male, cynomolgus monkey, in vivo, po, 50 mg FAE/monkey, Plasma concentration, 0.50 hr, 12.5 mg FAE/mL in 40% PG, 20% Glycerin, 1% TPGS, 0.25% Tween80, 0.2% NaCMC, 50 mg FAE/monkey oral gavage, monkeys 117,118,119,AVG", "value": 12.5, "unit": "µg/mL"}, {"measurement": "concentration at 1 hr", "setting": "male, cynomolgus monkey, in vivo, po, 50 mg FAE/monkey, Plasma concentration, 1.0 hr, 12.5 mg FAE/mL in 10% HPβCD, 50 mg FAE/monkey oral gavage, monkeys 186,116,120,AVG", "value": 56.4, "unit": "µg/mL"}, {"measurement": "concentration at 1 hr", "setting": "male, cynomolgus monkey, in vivo, po, 50 mg FAE/monkey, Plasma concentration, 1.0 hr, 12.5 mg FAE/mL in 40% PG, 20% Glycerin, 1% TPGS, 0.25% Tween80, 50 mg FAE/monkey oral gavage, monkeys 186,116,120,AVG", "value": 65.5, "unit": "µg/mL"}, {"measurement": "concentration at 1 hr", "setting": "male, cynomolgus monkey, in vivo, po, 50 mg FAE/monkey, Plasma concentration, 1.0 hr, 50 mg FAE/mL in 40% EtOH:40% PG:20% Glycerol, 50 mg FAE/monkey oral gavage, monkeys 117,118,119,AVG", "value": 19.2, "unit": "µg/mL"}]}]}
